Experiment [1] concerns the target T1, α-amylase (Bacillus subtilis, UniProt P00691).
T1 construct: purchased Shanghai Ryon Biological Technology Co. Ltd
The experiment in a line: Inhibition kinetics of α-amylase by Lineweaver-Burk plots. It counts as biochemical. As to conditions: for Inhibitory type: Lineweaver-Burk plots, starch 0.25-1.25 mg/ml. How it is done: To further explore the inhibitory type of three flavonoids on α‐amylase, kinetic analysis was carried out by using Lineweaver–Burk plots. Starch was used as substrate, and the inhibition kinetics of α‐amylase was evaluated by varying four different concentrations (0.25, 0.50, 1.00, and 1.25 mg/ml) of starch in the absence or presence of three flavonoids. The Lineweaver–Burk plots of the three flavonoids can be obtained from the double‐reciprocal plots between 1/[S] (starch concentration) and 1/[V] (reaction rate). Besides, different concentrations of flavonoids (0, 5, and 10 μM) were used and the three Lineweaver––Burk plots for each flavonoid can be obtained. The Ki (inhibition constant) value was obtained from the least‐squares regression line of the slopes of Lineweaver–Burk plots versus the corresponding flavonoid concentrations [I] (Kandra, Gyémánt, Zajácz, & Batta, 2004; Yang et al., 2014). The formula is(3) slope=Km/Vmax1+[I]/Ki Ki = intercept of Equation (3) on x axis (Yang et al., 2014)

The target in experiment [2] is T1, α-amylase. As to the kind of experiment: SPR binding assay of flavonoids to immobilized α-amylase. As to conditions: for kon: pH 6, read-out: Ka (association rate constant); for koff: pH 6, read-out: Kd (dissociation rate constant) × 10^–3. On the procedure:
A commercial BI‐2000 SPR instrument (Biosensing Instrument Inc.) was used for all SPR experiments in this study. The bare Au sensor chip was obtained from Biosensing Instrument Inc. The preparation of Au sensor chip can be referred to our previous published paper (Liu et al., 2014). A flow delivery system incorporated in the BI‐SPR platform pumped samples onto the SPR sensor chip at a flow rate of 10 μl/min. The 0.01 M PBS (pH = 6.0) buffer was used as the running buffer. The BI‐SPR 2000 control software (version 2.2.0.) was used to perform instrument operation and data processing. The Varioskan Flash (Multiskan GO 1510, Thermo Fisher Scientific) was used for the α‐amylase inhibitory activity and DPPH radical assays.
Binding assay of three flavonoids to α‐amylase was carried out using the SPR sensor. The immobilization of α‐amylase on the chip surface was performed using a standard amine coupling procedure as described previously (Liu, Luo, Li, She, & Gao, 2017). […] After the stable baseline was obtained, different concentrations of flavonoids (50–800 μM) were injected over the chip surface coated with α‐amylase, respectively. The SPR angle was monitored until the baseline stabilization. To enable reuse of the SPR chip, the chip surface could be regenerated using 2 mM NaOH after each measurement. Regeneration parameters were based on the strength of interaction between the analyte and α‐amylase. The chip surface was rinsed by PBS between each step. All the experiments were repeated three times, and kinetic parameters (ka, kd) were deduced by nonlinear fitting of the primary sensorgram data based on the 1:1 Langmuir‐binding model using the BI‐SPR 2000 control software (version 2.2.0.). The model has been widely used in protein–ligand binding analysis and can be calculated through the following formula (Gombau et al., 2019; Islam, Shen, Gurgel, Rojas, & Carbonell, 2014; Lee, Jeong, Jones, & Kim, 2011):(1) dR/dt=kaCRmax-R-kdR where R is the SPR signal at time t, and C is the concentration of the analyte. R max is the maximum analyte binding capacity in SPR signal. ka is the association rate constant and kd is the dissociation rate constant.

Experiment [3] can be described thus: DPPH radical assay without or with α-amylase. The following applies: mean ± RSD (n = 3); for Inhibition (%) of antioxidant activity by binding to α-amylase: (add α-amylase IC50 − not add α-amylase IC50)/not add α-amylase IC50. For orientation: The DPPH test is a chemical assay of radical scavenging.
Procedure: The DPPH assay was performed to assess effect of α‐amylase on antioxidant activity of three flavonoids as following procedure (Kim et al., 2014). 2 mM DPPH solution was prepared by dissolving 0.0787 g of DPPH in 100 ml of anhydrous ethanol and stored at −20°C. α‐Amylase (300 μM) and three flavonoids (2.5–125 μM) were prepared with PBS (pH = 6.0) and ethanol, respectively. Samples were prepared by mixing flavonoids solution (without or with 10 μl α‐amylase), 100 μl of DPPH, and anhydrous ethanol. Then, samples were incubated for 10 min at room temperature. Absorbance at 517 nm was measured in the spectrophotometer. DPPH radical scavenging activity was calculated as follows (Liu et al., 2017):(4) DPPHradicalscavengingactivity(%)=1-Ai-Aj/Ac×100% in which AC is the absorbance of the DPPH (100 μl DPPH and 100 μl ethanol), Ai is the absorbance of the DPPH and sample (100 μl DPPH, 50 μl flavonoids, and 50 μl ethanol, or 100 μl DPPH, 50 μl flavonoids, 10 μl α‐amylase, and 40 μl ethano1), and Aj is the absorbance of the blank sample (50 μl flavonoids and 150 μl ethanol). All experiments were carried out in triplicate, and the results were expressed as mean ± RSD. IC50 values were obtained based on plotting the percentage of DPPH radical scavenging activity against the flavonoids concentration.
Experiment [4] has as its target T1, α-amylase. The experiment in a line: SPR: effect of pH and salt on the interaction between flavonoids and α-amylase. Type of experiment: binding. The following applies: flavonoid 200 μM; for optimal CaCl2 concentration for binding with α-amylase: CaCl2 0.04-0.2 M; for optimal MgCl2 concentration for binding with α-amylase: MgCl2 0.02-0.25 M. On the procedure: The effect of pH on the interaction between three flavonoids and α‐amylase was carried out within the pH range (3–9) based on the method described in the above experiment. As is known to all, metal ions play a crucial role in maintaining normal physiological function of the α‐amylase. Moreover, salt is also widely used in food industry. To evaluate whether KCl, MgCl2, and CaCl2 can interfere with the interaction between flavonoids and α‐amylase, a series of 200 μM flavonoids with a various concentrations of KCl (0.02–0.3 M), MgCl2 (0.02–0.25 M), or CaCl2 (0.04–0.2 M) solutions were flowed over the chip surface modified with α‐amylase, respectively.

[5] abbreviates: with 10 μl α-amylase (300 μM), read-out: Add α-amylase IC50 (DPPH radical scavenging).
The mark [6] stands for this setting: without α-amylase, read-out: Not add α-amylase IC50 (DPPH radical scavenging).

The values that follow come from publication PMC6977516, “An assessment of the interaction for three Chrysanthemum indicum flavonoids and α‐amylase by surface plasmon resonance” (Food Science & Nutrition, 2019).

SMILES strings stand for the structures. Read-outs that look alike come from different tables or passages of the source. Marks after values point to notes of the source that are not given here.

T1 sequence (P00691 42-659): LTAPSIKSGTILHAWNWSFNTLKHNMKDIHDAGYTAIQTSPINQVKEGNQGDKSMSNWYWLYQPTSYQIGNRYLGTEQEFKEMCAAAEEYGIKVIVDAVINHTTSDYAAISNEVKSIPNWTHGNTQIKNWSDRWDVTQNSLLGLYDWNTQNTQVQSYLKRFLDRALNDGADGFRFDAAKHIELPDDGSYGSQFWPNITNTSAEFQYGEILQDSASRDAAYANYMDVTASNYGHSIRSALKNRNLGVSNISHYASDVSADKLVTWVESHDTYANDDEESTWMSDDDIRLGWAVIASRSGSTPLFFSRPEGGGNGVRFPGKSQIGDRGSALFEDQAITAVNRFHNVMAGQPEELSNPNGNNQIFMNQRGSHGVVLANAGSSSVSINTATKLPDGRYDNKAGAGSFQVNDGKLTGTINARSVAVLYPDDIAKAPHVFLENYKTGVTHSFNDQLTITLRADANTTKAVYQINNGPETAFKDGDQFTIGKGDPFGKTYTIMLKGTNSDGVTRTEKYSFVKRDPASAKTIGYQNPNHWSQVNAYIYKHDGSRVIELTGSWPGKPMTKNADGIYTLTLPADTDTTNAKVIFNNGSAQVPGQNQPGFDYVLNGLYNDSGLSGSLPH

A word on the Ki: it is the dissociation constant of the complex between target and ligand, obtained from inhibition or displacement. Usually Kd stands for the concentration at which binding is half-saturated. One may read the IC50 as the point on the concentration scale where inhibition reaches its midpoint. On to `COc1ccc(-c2cc(=O)c3c(O)cc(O)cc3o2)cc1` [Acacetin, acacetin], for which, at α-amylase [1], the Ki was 39.7 µM and the Inhibitory type result is recorded as “Noncompetitive”. On α-amylase [2], binding was put at a Kd of 2920 ± 200 µM, the kon worked out at 2.76 ± 6 M⁻¹ s⁻¹ and the koff turned out to be 0.008 ± 0.00015 s⁻¹. In addition, the IC50 in experiment [3] (setting [5]) amounted to 77.8 µM. Also, in experiment [3] (setting [6]), the IC50 is 61.3 µM. For the same compound, on α-amylase [4], the “optimal CaCl2 concentration for binding with α-amylase” value (shortened to “optimal CaCl2 concentration”) was found to be 0.100 M and the “optimal MgCl2 concentration for binding with α-amylase” value (shortened to “optimal MgCl2 concentration”) was 0.120 M.

In the case of `COc1ccc(-c2cc(=O)c3c(O)cc(O[C@@H]4O[C@H](CO[C@@H]5O[C@@H](C)[C@H](O)[C@@H](O)[C@H]5O)[C@@H](O)[C@H](O)[C@H]4O)cc3o2)cc1` [Buddleoside], on α-amylase [1], the Ki is 43.5 µM and the Inhibitory type result is on record as “Noncompetitive”. At α-amylase [2], the Kd worked out at 3300 ± 80 µM, the kon amounted to 2.54 ± 0.2 M⁻¹ s⁻¹ and the koff was 0.0083 ± 0.00015 s⁻¹. Moreover, the “Inhibition (%) of antioxidant activity by binding to α-amylase” value in experiment [3] is listed as 21.65 ± 0.04^a %. In experiment [3] (setting [5]), the IC50 came out at 79.13 ± 0.012 µM. The IC50 in experiment [3] (setting [6]) was found to be 65.05 ± 0.02 µM. Moreover, at α-amylase [4], the “optimal CaCl2 concentration” value is 0.100 M and the “optimal MgCl2 concentration” value is given as 0.120 M.

On to `O=c1cc(-c2ccc(O)c(O)c2)oc2cc(O)cc(O)c12` [Luteolin, luteolin], for which the Inhibitory type result at α-amylase [1] was “Noncompetitive”. In addition, the Ki at α-amylase [1] (slopes of Lineweaver-Burk plots vs flavonoid concentration (0, 5, 10 μM), starch substrate, read-out: Ki) was 26.8 µM. For the same compound, the Kd at α-amylase [2] (SPR, 1:1 model, pH 6.0, mean ± RSD (n = 3), read-out: KD (equilibrium dissociation constant)) came to 1970 ± 120 µM. At α-amylase [2], the kon was 4.12 ± 0.1 M⁻¹ s⁻¹ and the koff worked out at 0.00808 ± 0.00011 s⁻¹. Besides, the “Inhibition (%) of antioxidant activity by binding to α-amylase” value in experiment [3] is 49.93 ± 0.037^c %. For the same compound, the IC50 in experiment [3] (setting [5]) worked out at 75.2 µM. The IC50 in experiment [3] (setting [6]) came out at 50.1 µM. On α-amylase [4], the “optimal CaCl2 concentration” value was determined as 0.120 M and the “optimal MgCl2 concentration” value is on record as 0.150 M.
